The record followed here is US9801960B2, “Probe for a biological specimen and labelling method and screening method using the probe” (CANON KABUSHIKI KAISHA, priority 2008, dated 2017).

Series [1] can be described thus: Excitation and fluorescence emission wavelength measurement. Particulars: aqueous solution: 10 mg/mL solution in DMSO diluted 500-fold with purified water. It is filed as physicochemical. Also on record: Stokes shift (λem − λex): unit not given here. As to the method: It should be noted that the excitation wavelength and the fluorescence emission wavelength of the staining compound were determined by measuring an aqueous solution, which had been obtained by diluting 500-fold a 10 mg/mL solution of the staining compound in DMSO with purified water, with a fluorescence spectrophotometer FL 4500 manufactured by Hitachi High-Technologies Corporation.

Another series concerns Zebrafish juveniles. Kind of series: In vivo labelling of Zebrafish juveniles with probe for biological specimen. Also on record: key to Staining property: +++: stained; −: no stained; key to Fluorescence sensitivity: +++: strongly observed; ++: moderately observed; +: weakly observed; −: no stained. To be noted: 1 hour. A digest of the protocol:
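Five zebrafish juveniles were immersed in distilled water containing staining compound at 10 ng/mL (DMSO solution) for 1 hour. They were then washed three times with Egg Water, immobilised in 3% methylcellulose and imaged by stereomicroscope. Staining and fluorescence intensity were scored visually on a +++ to − scale.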

Series [2] has as its system human liver tumor section. Kind of series: In vitro labelling of human frozen tissue section slide. Format: cell-based. Set-up: key to Staining property: +++: stained; −: no stained; key to Fluorescence sensitivity: +++: strongly observed; ++: moderately observed; +: weakly observed; −: no stained. To be noted: 10 ng/mL aqueous solution, 1 hour. As to the method: A human frozen tissue section slide (manufactured by BioChain Institute, Inc.) shown in Table 3 was immersed in a 10 ng/mL aqueous solution of each of the staining compounds shown in Table 3 for 1 hour. Next, the slide was washed three times with PBS for 10 minutes, mounted with Fluoromount G (manufactured by Southern Biotechnology), and then covered with a cover glass.

Series [3] can be described thus: Storage stability of staining compound solution in DMSO. To be noted: 10 ng/mL in DMSO, closed glass container, normal temperature, 1 month; rate of change of absorbance and fluorescence intensity. It is filed as physicochemical. In a few lines:
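Compounds held as 10 ng/mL DMSO solutions in closed glass containers at normal temperature for 1 month. Rates of change in absorbance and fluorescence intensity at a given wavelength versus start were scored: +++ <5%, ++ 5–15%, − >15%.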

As for `O=C(O)C[n+]1c(/C=C/c2cc(Br)c3c(c2)C2CCCC2N3c2ccccc2)sc2ccccc21` (stereo not drawn) [Dye 23], in series [1], the Excitation wavelength λex is 545 nm, the Fluorescence emission wavelength λem stood at 636 nm and the “Stokes shift (λem − λex)” value came out at 91. Also, the “Site(s) to be labelled” value with Zebrafish juveniles (10 ng/mL in water, stereoscopic microscope) is reported as “nose”. The Fluorescence sensitivity entry in the series on Zebrafish juveniles (10 ng/mL, fluorescence intensity visually evaluated) is “+++”. Moreover, in the series on Zebrafish juveniles (10 ng/mL, visually evaluated), the Staining property result is on record as “+++”. For the same compound, in series [2], the Fluorescence sensitivity result is recorded as “+++” and the Staining property result is “+++”. In addition, the Storage stability result in series [3] was “+++ (rates of change of the absorbance and the fluorescence intensity are less than 5%, and thus, the storage stability is highly excellent)”.
